SMILES strings stand for the structures. Entries after “also recorded” stand apart in the source; their conditions may differ.

One data set in a line: MTT assay, MCF-12A. It is filed as cell-based. The following applies: human, MCF-12A cells (non-tumorigenic breast epithelial), read-out: Cytotoxic activity IC50, MCF-12A. As for the experimental part: (§1) The cell lines used in the cytotoxicity study, besides MCF-12A, were purchased from European Collection of Cell Culture (ECACC, Salisbury, UK): HEK293 (human embryonic kidney, ATTC no. CRL-1573), A549 (Human lung carcinoma, ECACC no. 86012804), CCD39Lu (Human lung fibroblasts, ECACC no. 90110512), MCF-7 (Human breast adenocarcinoma, ECACC no. 86012803) and MDA-MB-231 (Human breast adenocarcinoma ECACC no. 92020424). Cell lines were cultured in DMEM medium without phenol red and supplemented with 10% (v/v) FBS, 1% penicillin-streptomycin and 1% L-glutamine. MCF-12A (ATTC no. […]) was purchased from American Type Culture Collection (ATCC Manassas, VA 20110 USA). MCF-12A cells were kept in 1:1 mixture of Dulbecco’s modified Eagle’s medium and Ham’s F12 medium, 20 ng/ml human epidermal growth factor, 100 ng/ml cholera toxin, 0.01 mg/ml bovine insulin, 500 ng/ml hydrocortisone and 5% horse serum. All cell lines were cultured at 37°C, in a humidified atmosphere containing 5% CO2.
(§2) Compounds were dissolved in DMSO to the final concentration of […]. A549, CCD39Lu, MCF-7, MDA-MB-231 and MCF-12A cells were seeded in 96 wells plates at density 2x10^4 cells/well and incubated overnight as described above. Subsequently, cells were treated with tested compounds at concentrations: 100 μM; 50 μM; 25μM; 12.5μM; 6 μM; 3 μM; 1.5 μM. […] Cells were incubated 72 h at 37°C in a humidified atmosphere containing 5% CO2 in the cell culture media appropriate for each cell line. Then, the medium was aspirated and 170 μl MTT solution (5mg/ml) was added to each well. Plates were incubated for 2 hours at 37°C, and then plates were centrifuged at 1200 rpm for 3 minutes. The formazan crystals were dissolved in 200 μl DMSO and plates were further agitated on a plate shaker at 300–500 rpm for 10 minutes. Absorbance at 570 nm (with reference wavelenght 650 nm) was measured using a plate reader (Biotek Instruments, Elx-800). Cell viability was calculated as a percentage relative to the control.
(In general: Formazan colour is commonly taken as a measure of viable cells.)

In another data set the target is T1, human ERα receptor (Homo sapiens, UniProt P03372).
T1 construct: host or cells: HEK293
T1 sequence (P03372 1-595): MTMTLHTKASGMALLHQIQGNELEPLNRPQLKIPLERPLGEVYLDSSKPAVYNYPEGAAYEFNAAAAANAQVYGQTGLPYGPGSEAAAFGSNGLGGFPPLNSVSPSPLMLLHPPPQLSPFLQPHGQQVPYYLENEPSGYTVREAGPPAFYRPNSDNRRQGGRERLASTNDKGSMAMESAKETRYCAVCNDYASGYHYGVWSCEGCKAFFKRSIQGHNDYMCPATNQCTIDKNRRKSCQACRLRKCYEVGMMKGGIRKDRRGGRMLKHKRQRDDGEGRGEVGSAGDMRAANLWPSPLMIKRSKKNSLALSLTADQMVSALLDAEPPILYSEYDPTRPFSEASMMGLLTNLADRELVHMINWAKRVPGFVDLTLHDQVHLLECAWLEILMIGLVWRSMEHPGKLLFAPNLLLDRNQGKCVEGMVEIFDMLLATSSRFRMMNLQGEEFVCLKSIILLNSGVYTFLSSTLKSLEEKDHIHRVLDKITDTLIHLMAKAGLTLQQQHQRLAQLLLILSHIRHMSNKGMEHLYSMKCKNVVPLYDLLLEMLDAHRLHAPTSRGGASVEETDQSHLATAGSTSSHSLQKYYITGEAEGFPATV
As to the kind of experiment: Estrogen Receptor luciferase assay in HEK293 cells transfected with ERα. It is filed as cell-based. The following applies: HEK293 transfected with ERα and luciferase reporter, compared with estradiol, Fig 3A/3B. An excerpt:
(§3) To obtain a eukaryotic vector expressing only the ER-α nuclear receptor, a construct was designed by cloning a KpnI-BamHI fragment from plasmid pEGFP-C1-ERα containing the ERα coding sequence that includes a stop signal into the pEGFP-N3 plasmid (Clontech Laboratories, Palo Alto, CA) under the control of the CMV promoter. This construction was termed pEGFP-N-ERα, and although it encoded both human ERα receptor and GFP protein, only the former is expressed. For mock transfections, pEGFP-N3 plasmid was digested with BglII and NotI and religated after polishing DNA ends to remove GFP coding sequence. Plasmid sequence was confirmed by automatic sequencing. Prior to transfection, cells were seeded in 48 well plates at density of 1.5 x 10^4 cells/well and incubated for 24 h to reach a cell confluence of 80–90%. […] MCF-7 cells, which endogenously express ERα receptor, were transfected with p3xERRE/ERE-luciferase plus the pRLTK Renilla luciferase control plasmid (95:5). Firefly and Renilla luciferase activities were measured using the Dual Luciferase Assay System (Promega, Madison, WI, USA), following a standard protocol using a Sirius L luminometer (Berthold Technologies, Bad Wildbad, Germany). Data were expressed as relative changes in luciferase activity and normalized to 100%.
On the technique in general: Reporter assays use an easily measured gene product as a stand-in for the process of interest.

The next data set is described as follows: MTT assay, CCD39Lu. It is filed as cell-based. The conditions noted are these: human, CCD39Lu cells (non-tumorigenic lung fibroblasts), read-out: Cytotoxic activity IC50, CCD39Lu. On the procedure: as §1, §2
Data set [1] has as its system MCF-7 cells. Kind of data set: MTT assay, MCF-7. It is filed as cell-based, human. The following applies: for Activity in MTT assay (in words), MCF-7: 72 h; for IC50: Homo sapiens, MCF7, 72 h, estrogen dependent breast adenocarcinoma, read-out: Cytotoxic activity IC50, MCF-7. As for the experimental part: as §1, §2
The subject of a further data set is MDA-MB-231 cells. As to the kind of experiment: MTT assay, MDA-MB-231. It counts as cell-based, human. The conditions noted are these: Homo sapiens, MDA-MB-231, 72 h, estrogen independent breast adenocarcinoma, read-out: Cytotoxic activity IC50, MDA-MB-231. On the procedure: as §1, §2
For the next data set, the target named is T2, estrogen receptor (Homo sapiens, UniProt P03372).
T2 construct: MCF-7 cells, which endogenously express ERα receptor; endogenous in cells; host or cells: MCF-7
T2 sequence (P03372 1-595): T1 sequence (P03372 1-595)
As to the kind of experiment: Estrogen Receptor luciferase assay in MCF-7 cells (endogenous ER). The conditions noted are these: MCF-7 transfected with p3xERRE/ERE-luciferase, Fig 3C. It counts as cell-based.
Text: as §3

A further data set relates to A549 cells. As to the kind of experiment: MTT assay, A549. It counts as cell-based. The following applies: Homo sapiens, 72 h, lung adenocarcinoma, read-out: Cytotoxic activity IC50, A549. On the procedure: as §1, §2
For data set [2], the system named is MCF-7 cells. As to the kind of experiment: LDH release assay, MCF-7. It counts as cell-based, human. The conditions noted are these: 72 h, Fig 2. On the procedure: Cytotoxicity was evaluated by measuring the cell membrane permeability, using a LDH assay kit purchased from Cayman Chemical (Ann Arbor USA). The LDH assay was performed for MCF-7 and MDA-MB-231 cells (seeded at 2×10^4 density). As a positive control cell permeabilization with 1%Triton X-100 was used. The assay was performed 72h after start the incubation. Briefly, the plates were centrifuged at 400 ×g for 5 minutes, and 100 μL of supernatant were transferred from each well to the new 96-well plate and analyzed according to the manufacturer’s protocol. 100 μL of reaction mixture, containing lactic acid, NAD^+, tetrazolium salt and diaphorase, was added to each well. Plates were incubated on an orbital shaker for 30 minutes at room temperature and the absorbance at 490 nm was measured with a plate reader (Biotek Instruments, Elx-800). Results were expressed as a percentage of the total value of the positive control.
(Release of lactate dehydrogenase indicates damage to the cell membrane.)

Data set [3] deals with MCF-7 cells. As to the kind of experiment: Sulphorodamine B assay, MCF-7. It counts as cell-based, human. The conditions noted are these: 72 h, Fig 2. On the procedure: In addition to the MTT assay, cell viability was measured by the Sulphorodamine B assay according to Vichai and Kirtikara. The MCF-7 and MDA-MB-23 cells were seeded and treated as for the MTT assay. After incubation the medium was removed and the cells were fixed with cold (4°C) trichloroacetic acid (final concentration 10%) for 1h. Than plates were washed 4 times with water and stained for 30 min, following by staining with sulforhodamine B (SRB) 0.4% in 1% acetic acid solution at room temperature for 20 min. After staining, the SRB solution was removed and the plates washed 5 times with 1% acetic acid dried. Bound SRB was solubilized with 200 μl 10 mM unbuffered Tris-base solution and plates were shaked for 10 min. The absorbance at 510 nm was measured using a plate reader (Biotek Instruments, Elx-800).

For orientation: IC50 means the point on the concentration scale where inhibition reaches its midpoint. Consider `COc1cc(NC(=O)c2cc(C)c(C)cc2[N+](=O)[O-])cc(OC)c1OC` [Compound 6], for which the IC50 at 72 h was over 100 µM in “MTT assay, MCF-12A” and over 100 µM in “MTT assay, CCD39Lu”. The “ER dependent transcriptional activity” value at human ERα receptor is reported as “capable to mediate ER dependent transcriptional activity in a similar mode than estradiol”. Further, the “Activity in MTT assay (in words), MCF-7” value in the data set with MCF-7 cells [1] is recorded as “significant activity”. For the same compound, the IC50 with MCF-7 cells [1] is 24.7 µM; with MDA-MB-231 cells, over 100 µM; in the data set on A549 cells it was over 100 µM. Also, on estrogen receptor, the “Transcriptional (luciferase) activity in MCF-7” value is “much lower”.
With `COc1ccc(NC(=S)c2cccc(NC(=S)c3ccc(OC)cc3)c2)cc1` [Compound 15], the half-inhibitory concentration (IC50) at 72 h in the data set “MTT assay, MCF-12A” is over 100 µM; in the data set “MTT assay, CCD39Lu”, over 100 µM. In addition, at human ERα receptor, the “ER dependent transcriptional activity” value is on record as “capable to mediate ER dependent transcriptional activity in a similar mode than estradiol”. Further, the “Activity in MTT assay (in words), MCF-7” value with MCF-7 cells [1] was “significant activity; also recorded: strong effect”. In addition, the results for the IC50 with MCF-7 cells [1], in the data set on MDA-MB-231 cells and in the data set with A549 cells were 17.7 µM, over 100 µM and over 100 µM, respectively. The “LDH release, MCF-7” value in the data set on MCF-7 cells [2] is “relatively low increase”. Also, the “Effect in SRB assay, MCF-7” value with MCF-7 cells [3] was “strong effect”.

These data come from paper PMC4701221, “Novel Promising Estrogenic Receptor Modulators: Cytotoxic and Estrogenic Activity of Benzanilides and Dithiobenzanilides” (PLoS ONE, 2016).
